In ChEMBL document CHEMBL5154636, “Discovery of STAT3 and Histone Deacetylase (HDAC) Dual-Pathway Inhibitors for the Treatment of Solid Cancer” (J Med Chem, 2021):
pIC50: −log10 of the molar value. The source made the active and inactive calls. The rule behind the calls is not given here.

Experiments:
[1] = system: MDA-MB-231; assay: Induction of apoptosis in human MDA-MB-231 cells assessed as necrotic cells at 10 uM incubated for 24 hrs by Annexin-V/FITC and PI staining based flow cytometry analysis (reference value: 0.0%); format: functional
[2] = target: Histone deacetylase (Homo sapiens) (UniProt Q13547+O15379+Q9UBN7+Q92769+Q9UQL6+Q8WUI4+Q9BY41+Q96DB2+P56524+Q9UKV0+Q969S8); assay: Inhibition of HDAC in human MDA-MB-231 cells assessed as increase in histone H3 acetylation incubated for 24 hrs by Western blot analysis; format: cell-based; details: dose 0.5-5 µM, DDE = dose-dependent effect
[3] = system: MDA-MB-231; assay: Induction of apoptosis in human MDA-MB-231 cells assessed as necrotic cells at 2 uM incubated for 24 hrs by Annexin-V/FITC and PI staining based flow cytometry analysis (reference value: 0.0%); format: functional
[4] = system: 4T1; assay: Antitumor activity against mouse 4T1 cells allografted in BALB/c mouse assessed as reduction in tumor volume at 30 mg/kg, ip qd for 21 days and measured every 3 days by vernier caliper method relative to control; format: functional; parameters: scale not given: the % may be the effect or the level left; details: time 21 day
[5] = target: T1, Signal transducer and activator of transcription 3 (Homo sapiens, UniProt P40763); assay: Inhibition of STAT3 in human MDA-MB-231 cells assessed as decrease in Bcl-2 protein expression at 0.5 to 5 uM after 24 hrs by Western blot analysis; format: cell-based; details: dose 0.5-5 µM
[6] = target: T1, Signal transducer and activator of transcription 3; assay: Inhibition of STAT3 in human MDA-MB-231 cells assessed as decrease in cyclin D1 mRNA expression at 0.5 to 5 uM by qRT-PCR analysis; format: cell-based; details: dose 0.5-5 µM
[7] = Volume of distribution at steady state in Sprague-Dawley rat at 2 mg/kg, iv measured upto 24 hrs by LC-MS/MS analysis; format: ADME, organism-based; details: in vivo, read-out: Vdss
[8] = target: Histone deacetylase 1 (Homo sapiens, UniProt Q13547); assay: Inhibition of recombinant human HDAC1 using RHKK(Ac)AMC fluorogenic peptide as substrate by fluorescence assay
[9] = system: MDA-MB-231; assay: Cytotoxicity against human MDA-MB-231 cells assessed as reduction in cell viability incubated for 48 hrs by MTT assay; format: functional, cell-based; details: MDA-MB-231, 48 h
[10] = system: MDA-MB-231; assay: Induction of apoptosis in human MDA-MB-231 cells assessed as increase in cleaved capase-7 level at 0.5 to 5 uM incubated for 24 hrs by Western blot analysis; format: functional, cell-based; details: dose 0.5-5 µM
[11] = system: HCT-116; assay: Cytotoxicity against human HCT-116 cells assessed as reduction in cell viability incubated for 48 hrs by MTT assay; format: functional, cell-based; details: HCT-116, 48 h
[12] = system: MDA-MB-231; assay: Induction of apoptosis in human MDA-MB-231 cells assessed as early apoptotic cells at 2 uM incubated for 24 hrs by Annexin-V/FITC and PI staining based flow cytometry analysis (reference value: 1.4%); format: functional
[13] = Acute toxicity in po dosed ICR mouse assessed as maximum tolerated dose measured after 7 days; format: organism-based; details: in vivo, time 7 day
[14] = system: 4T1; assay: Antitumor activity against mouse 4T1 cells allografted in BALB/c mouse assessed as reduction in tumor weight at 30 mg/kg, ip qd for 21 days by vernier caliper method relative to control; format: functional; parameters: scale not given: the % may be the effect or the level left; details: time 21 day
[15] = system: L02; assay: Cytotoxicity against human L02 cells assessed as reduction in cell viability at 32 uM incubated for 48 hrs by MTT assay relative to control; format: toxicity, cell-based; details: l02, 48 h
[16] = target: T2, Histone deacetylase 11 (Homo sapiens) (UniProt Q96DB2); assay: Inhibition of recombinant human HDAC11 at 10 uM using Boc-Lys(TFA)-AMC as substrate by fluorescence assay relative to control
T2 sequence (whole entry): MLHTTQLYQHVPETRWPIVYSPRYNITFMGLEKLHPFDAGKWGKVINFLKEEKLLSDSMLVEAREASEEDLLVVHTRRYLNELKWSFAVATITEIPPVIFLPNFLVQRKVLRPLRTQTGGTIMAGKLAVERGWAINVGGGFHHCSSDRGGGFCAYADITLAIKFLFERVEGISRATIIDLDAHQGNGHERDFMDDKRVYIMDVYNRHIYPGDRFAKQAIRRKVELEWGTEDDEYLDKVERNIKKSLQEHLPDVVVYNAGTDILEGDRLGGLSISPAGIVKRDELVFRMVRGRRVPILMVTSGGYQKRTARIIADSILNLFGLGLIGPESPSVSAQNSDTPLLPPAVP

[17] = Clearance in Sprague-Dawley rat at 2 mg/kg, iv measured upto 24 hrs by LC-MS/MS analysis; format: ADME, organism-based; details: in vivo
[18] = target: Histone deacetylase; assay: Inhibition of HDAC in human MDA-MB-231 cells incubated for 24 hrs by fluorometric assay; format: cell-based
[19] = target: T1, Signal transducer and activator of transcription 3; assay: Binding affinity to recombinant GST tagged STAT3 (unknown origin) assessed as association constant at equilibrium
[20] = system: MDA-MB-231; assay: Induction of apoptosis in human MDA-MB-231 cells assessed as late apoptotic cells at 5 uM incubated for 24 hrs by Annexin-V/FITC and PI staining based flow cytometry analysis (reference value: 0.7%); format: functional
[21] = Half life in Sprague-Dawley rat at 2 mg/kg, iv measured upto 24 hrs by LC-MS/MS analysis; format: ADME, organism-based; details: in vivo
[22] = target: T1, Signal transducer and activator of transcription 3; assay: Inhibition of STAT3 in human MDA-MB-231 cells assessed as decrease in cyclin-D1 protein expression at 0.5 to 5 uM after 24 hrs by Western blot analysis; format: cell-based; details: dose 0.5-5 µM
[23] = system: MDA-MB-231; assay: Induction of apoptosis in human MDA-MB-231 cells assessed as late apoptotic cells at 10 uM incubated for 24 hrs by Annexin-V/FITC and PI staining based flow cytometry analysis (reference value: 0.7%); format: functional
[24] = system: MDA-MB-231; assay: Effect on STAT3 in human MDA-MB-231 cells assessed as […] phosphorylation at 10 uM incubated for 24 hrs by Western blot analysis; format: functional, cell-based
[25] = target: T1, Signal transducer and activator of transcription 3; assay: Inhibition of STAT3 in human MDA-MB-231 cells assessed as decrease in Bcl-2 mRNA expression at 0.5 to 5 uM by qRT-PCR analysis; format: cell-based; details: dose 0.5-5 µM
[26] = Toxicity in BALB/c mousee assessed as change in body weight at 15 to 30 mg/kg, ip qd for 21 days; format: organism-based; details: mouse, in vivo, 504 h, dose 15-30 mg/kg, time 21 day
[27] = system: 4T1; assay: Antitumor activity against mouse 4T1 cells allografted in BALB/c mouse assessed as reduction in tumor weight at 15 mg/kg, ip qd for 21 days by vernier caliper method relative to control; format: functional; parameters: scale not given: the % may be the effect or the level left; details: time 21 day
[28] = Oral bioavailability in Sprague-Dawley rat at 20 mg/kg measured upto 24 hrs by LC-MS/MS analysis; format: ADME, organism-based; details: in vivo
[29] = system: MDA-MB-231; assay: Induction of apoptosis in human MDA-MB-231 cells assessed as late apoptotic cells at 2 uM incubated for 24 hrs by Annexin-V/FITC and PI staining based flow cytometry analysis (reference value: 0.7%); format: functional
[30] = target: T1, Signal transducer and activator of transcription 3; assay: Inhibition of STAT3 phosphorylation at Y705 residue in human MDA-MB-231 cells incubated for 24 hrs by Western blot assay; format: cell-based; details: dose 0.5-5 µM
[31] = system: MDA-MB-231; assay: Induction of apoptosis in human MDA-MB-231 cells assessed as viable cells at 10 uM incubated for 24 hrs by Annexin-V/FITC and PI staining based flow cytometry analysis (reference value: 97.8%); format: functional; details: read-out: Activity

T1 sequence (P40763 whole entry): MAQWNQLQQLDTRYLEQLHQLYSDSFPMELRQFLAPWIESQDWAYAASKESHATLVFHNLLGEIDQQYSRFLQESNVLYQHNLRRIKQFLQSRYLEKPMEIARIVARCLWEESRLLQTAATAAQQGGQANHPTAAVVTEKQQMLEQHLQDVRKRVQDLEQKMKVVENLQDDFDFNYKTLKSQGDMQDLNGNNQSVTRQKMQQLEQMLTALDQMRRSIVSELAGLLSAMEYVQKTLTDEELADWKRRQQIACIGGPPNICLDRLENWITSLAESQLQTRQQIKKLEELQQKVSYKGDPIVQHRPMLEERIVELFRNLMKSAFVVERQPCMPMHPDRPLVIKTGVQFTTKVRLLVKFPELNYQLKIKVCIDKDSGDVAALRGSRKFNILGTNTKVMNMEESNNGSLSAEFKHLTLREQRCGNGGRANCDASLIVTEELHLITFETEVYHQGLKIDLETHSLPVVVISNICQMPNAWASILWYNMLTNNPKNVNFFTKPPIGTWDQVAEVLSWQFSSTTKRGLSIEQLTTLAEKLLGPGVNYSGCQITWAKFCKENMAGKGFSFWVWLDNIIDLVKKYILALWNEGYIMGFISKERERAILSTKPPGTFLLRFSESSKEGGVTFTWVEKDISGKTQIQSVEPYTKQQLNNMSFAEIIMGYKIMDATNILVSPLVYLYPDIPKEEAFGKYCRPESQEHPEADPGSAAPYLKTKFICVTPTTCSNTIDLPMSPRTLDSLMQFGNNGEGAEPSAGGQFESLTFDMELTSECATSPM
Chain of Histone deacetylase 1 (Q13547 whole entry): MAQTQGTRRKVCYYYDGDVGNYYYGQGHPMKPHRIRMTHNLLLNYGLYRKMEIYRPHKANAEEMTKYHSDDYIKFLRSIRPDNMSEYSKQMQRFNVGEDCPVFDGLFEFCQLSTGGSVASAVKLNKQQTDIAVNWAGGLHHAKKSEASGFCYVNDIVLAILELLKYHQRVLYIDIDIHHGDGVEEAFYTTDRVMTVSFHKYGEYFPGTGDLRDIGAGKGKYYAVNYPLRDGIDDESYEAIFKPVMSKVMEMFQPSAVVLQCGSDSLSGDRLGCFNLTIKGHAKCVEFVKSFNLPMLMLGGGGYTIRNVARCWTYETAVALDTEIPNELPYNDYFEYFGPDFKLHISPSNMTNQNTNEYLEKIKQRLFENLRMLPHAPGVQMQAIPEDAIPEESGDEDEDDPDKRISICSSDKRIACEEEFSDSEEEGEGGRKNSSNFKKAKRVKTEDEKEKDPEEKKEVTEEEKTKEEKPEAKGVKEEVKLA

## COc1cc(/C=C/c2ccc(OCCCCCCC(=O)NO)cc2)cc(OC)c1
[1]
  Activity: 0.2%
[2]
  Activity: Dde
[3]
  Activity: 0.1%
[4]
  Activity: 64%
[5]
  inhibition: Active
[6]
  inhibition: Active
[7]
  Vd: 1.65 L/kg
[8]
  pIC50: 6.17
[9]
  pIC50: 6.11
[10]
  Activity: Active
[11]
  pIC50: 5.97
[12]
  Activity: 4.9%
[13]
  MTD at 168 h: > 400 mg/kg
[14]
  Activity: 62%
[15]
  Activity: 32%
[16]
  inhibition: 37%
[17]
  clearance: 63.9 mL/min/kg
[18]
  IC50: 23.15 nM
[19]
  Ka: 451000 M⁻¹ s⁻¹
[20]
  Activity: 3.9%
[21]
  half-life: 28.2 min
[22]
  inhibition: Active
[23]
  Activity: 19.7%
[24]
  Activity: Active
[25]
  inhibition: Active
[26]
  Activity: Non-Toxic
[27]
  Activity: 53%
[28]
  bioavailability: 5.81%
[29]
  Activity: 5.7%
[30]
  inhibition: Active
[31]
  viability at 10 µM: 40.5%
